Laboratory results: patent US10253060B2, “Terpenoid derivatives” (Daiichi Sankyo Company, Limited, priority 2013, dated 2019)

Key:
ARPE-19 cells = assay: Cytotoxicity, LDH-Cytotoxic Test in ARPE-19 cells; format: cell-based, human; conditions: 10 μM, approx. 16 hours, 3 wells
Protocol: ARPE-19 cells (human retinal pigment epithelium cell line, ATCC, catalog No. CRL-2302) were cultured (5% CO2, 37° C.). A DMEM/F12 (Life Technologies Japan Ltd., catalog No. 11330-032) mixed medium containing 10% inactivated FBS was used. The medium contained 100 units/mL (final concentration) penicillin and 100 μg/[…] (final concentration) streptomycin.
The ARPE-19 cells were seeded at 5000 cells/well in a 96-well plate. The amount of the medium was 50 μL. Approximately 3 hours later, 50 μL of a medium containing CDDO-Me or each of terpenoid derivatives A to H was added thereto, followed by culture for approximately 16 hours. Then, cytotoxicity was evaluated using LDH-Cytotoxic Test (Wako Pure Chemical Industries, Ltd., catalog No. 299-50601). The evaluation method followed the attached document. Each group consisted of 3 wells and was indicated as cytotoxicity at the concentration of 10 μM. The means thereof were 43% for CDDO-Me, 2% for terpenoid derivative A, 2% for terpenoid derivative B, 2% for terpenoid derivative C, 1% for terpenoid derivative D, 2% for terpenoid derivative E, 3% for terpenoid derivative F, 3% for terpenoid derivative G, and 1% for terpenoid derivative H. Terpenoid derivatives A to H were low in cytotoxicity as compared with CDDO-Me.

NQO1 = NQO1 assay in Hepa1c1c7 cells; format: cell-based, mouse; conditions: approx. 48 hours, mean of 3 wells
Protocol: Hepa1c1c7 cells (mouse hepatic cell line, ATCC, catalog No. CRL-2026) were cultured (5% CO2, 37° C.). A DMEM (Life Technologies Japan Ltd., catalog No. 11965-092) medium also containing 10% inactivated FBS was used. The medium contained 100 units/mL (final concentration) penicillin and 100 μg/[…] (final concentration) streptomycin. The NQO1 assay was conducted according to previous reports (Anal Biochem 1998; 169: 328-; and Methods Enzymol 2004; 382: 243-).
The Hepa1c1c7 cells were seeded at 10000 cells/well in a 96-well plate. The amount of the medium was 100 μL. Approximately 24 hours later, the medium was replaced with a medium containing CDDO-Me or each of terpenoid derivatives A to G, followed by further culture for approximately 48 hours. A lysis solution (a solution containing 2 mM EDTA and 0.8% digitonin), a reaction solution (a solution containing 0.025 M of tris-HCl, 0.067% of albumin, 0.01% of Tween-20, 2 U/mL of glucose-6-phosphate dehydrogenase, 5 μM of flavin adenine dinucleotide, 1 […], 30 μM of nicotinamide adenine dinucleotide phosphate, 0.03% of 3-(4,5-dimethyl-2-thiazolyl)-2,5-diphenyltetrazolium bromide (MTT), and 50 μM of menadione), and a stop solution (a solution containing 0.3 mM dicumarol and 5 mM potassium dihydrogen phosphate, pH 7.4) were prepared. After removal of the medium, 50 μL of the lysis solution was added thereto, and the mixture was left standing at 37° C. for 10 minutes. The reaction mixture was further shaken at room temperature for 10 minutes.
Two hundred μL of the solution was added thereto, and the mixture was left standing at room temperature for 5 minutes. Fifty μL of the stop solution was added thereto, and the absorbance at 490 nm was measured.
The test results were analyzed using Prism (GraphPad Software, Inc., Ver. 5) to calculate the CD value of the concentration at which the activity of NQO1 was increased 2-fold. Each group consisted of 3 wells and indicated as a mean of CD values.

## COC(=O)[C@]12CC[C@](C)(CO)C[C@H]1[C@H]1C(=O)C=C3[C@@]4(C)[C@H]5O[C@@]5(C#N)C(=O)C(C)(C)[C@@H]4CC[C@@]3(C)[C@]1(C)CC2 [terpenoid derivative A]
ARPE-19 cells
  cytotoxicity (LDH-Cytotoxic Test), mean: 2%
NQO1
  CD value (concentration at which the activity of NQO1 was increased 2-fold): 1.3 nM

## COC(=O)[C@@]12CC[C@]3(C)[C@H](C(=O)C=C4[C@@]5(C)[C@H]6O[C@@]6(C#N)C(=O)C(C)(C)[C@@H]5CC[C@]43C)[C@@H]1CC(C)(C)C(=O)C2 [terpenoid derivative C]
ARPE-19 cells
  cytotoxicity (LDH-Cytotoxic Test), mean: 2%
NQO1
  CD value (concentration at which the activity of NQO1 was increased 2-fold): 0.4 nM

## COC(=O)[C@]12CC[C@@](C)(CO)C[C@H]1[C@H]1C(=O)C=C3[C@@]4(C)[C@H]5O[C@@]5(C#N)C(=O)C(C)(C)[C@@H]4CC[C@@]3(C)[C@]1(C)CC2 [terpenoid derivative D]
ARPE-19 cells
  cytotoxicity (LDH-Cytotoxic Test), mean: 1%
NQO1
  CD value (concentration at which the activity of NQO1 was increased 2-fold): 0.9 nM

## CC1(C)CC(O)[C@]2(C(N)=O)CC[C@]3(C)[C@H](C(=O)C=C4[C@@]5(C)C6OC6(C#N)C(=O)C(C)(C)[C@@H]5CC[C@]43C)[C@@H]2C1 (stereo partly shown) [terpenoid derivative E]
ARPE-19 cells
  cytotoxicity (LDH-Cytotoxic Test), mean: 2%
NQO1
  CD value (concentration at which the activity of NQO1 was increased 2-fold): 2.1 nM

## CC1(C)C[C@H]2[C@H]3C(=O)C=C4[C@@]5(C)C6OC6(C#N)C(=O)C(C)(C)[C@@H]5CC[C@@]4(C)[C@]3(C)CC[C@@]2(C#N)CC1O (stereo partly shown) [terpenoid derivative F]
ARPE-19 cells
  cytotoxicity (LDH-Cytotoxic Test), mean: 3%
NQO1
  CD value (concentration at which the activity of NQO1 was increased 2-fold): 0.1 nM

## CC1(C)C[C@H]2[C@H]3C(=O)C=C4[C@@]5(C)C=C(C#N)C(=O)C(C)(C)[C@@H]5CC[C@@]4(C)[C@]3(C)CC[C@@]2(C#N)CC1O (stereo partly shown) [terpenoid derivative G]
ARPE-19 cells
  cytotoxicity (LDH-Cytotoxic Test), mean: 3%
NQO1
  CD value (concentration at which the activity of NQO1 was increased 2-fold): 0.1 nM

## COC(=O)[C@]12CCC(C)(C)C[C@H]1[C@H]1C(=O)C=C3[C@@]4(C)C5OC5(C#N)C(=O)C(C)(C)[C@@H]4CC(O)[C@@]3(C)[C@]1(C)CC2 (stereo partly shown) [terpenoid derivative H]
ARPE-19 cells
  cytotoxicity (LDH-Cytotoxic Test), mean: 1%
